Here are results for twelve molecules from ChEMBL document CHEMBL5244200, “MicroRNAs as novel endogenous targets for regulation and therapeutic treatments” (Medchemcomm, 2018).

The nature of data set [1]: Inhibition of miR-21 in human HeLa cells assessed as inhibition. The data set is classed as cell-based.
The test system of data set [2] is HeLa. The experiment in a line: Inhibition of pri-miR-21 in human HeLa cells assessed as reduction in expression level at 10 uM relative to control. The data set is classed as cell-based.
A short description of data set [3]: Inhibition of miR-210 (unknown origin).
Data set [4] in a line: Effect on pre-miR-210 in human MDA-MB-231 cells assessed as fold increase at 200 nM. The format is functional.
Data set [5] can be described thus: Effect on pri-miR-210 in human MDA-MB-231 cells assessed as fold increase at 200 nM. The format is functional.
Data set [6] can be described thus: In vivo inhibition of miR-210 in human MDA-MB-231 cells xenografted with SCID mouse assessed as reduction in protein level under hypoxia condition relative to control. The data set is classed as functional. Also on record: scale not given: the % may be the effect or the level left. In general terms: In xenograft studies the graft and the host belong to different species.

Data set [7] in a line: Upregulation of GPD1L in human MDA-MB-231 cells assessed as fold increase in expression level. The data set is classed as functional.
Data set [8] in a line: In vivo inhibition of miR-210 in human MDA-MB-231 cells xenografted with SCID mouse assessed as reduction in […] level at 20 pmol relative to control. Also on record: scale not given: the % may be the effect or the level left.
Data set [9] can be described thus: Inhibition of miR-122 (unknown origin).
The nature of data set [10]: Inhibition of mature miR-122 (unknown origin) at 10 uM relative to control.
For data set [11], the system named is Hepatitis C virus. Nature of the data set: Antiviral activity against HCV. The data set is classed as functional, Hepacivirus hominis.
Data set [12] concerns Huh7 (Homo sapiens). Nature of the data set: Inhibition of miR-122 in human Huh7 cells assessed as fold increase at 10 uM by luciferase signal.
Data set [13] deals with MCF7. Nature of the data set: Inhibition of miR-21 in human MCF7 cells assessed as fold increase at 10 uM by luciferase signalling assay. The format is cell-based.
For data set [14], the system named is MCF7. Nature of the data set: Inhibition of miR-21 in human MCF7 cells assessed as fold increase in PDCD4 protein level. The data set is classed as cell-based.
In data set [15] the test system is MCF7. Nature of the data set: Induction of apoptosis human MCF7 cells at 5 uM assessed as fold increase in apoptotic rate. The data set is classed as functional.
A short description of data set [16]: Inhibition of myomiRs (unknown origin).
Data set [17] can be described thus: Inhibition of miR-206 (unknown origin).
Data set [18] can be described thus: Inhibition of miRNA (unknown origin).
Data set [19] is described as follows: Inhibition of miRNA (unknown origin) by fluorescence polarization assay. (Fluorescence polarisation rises when a labelled molecule tumbles more slowly, as on binding a larger partner.)
Data set [20] is described as follows: Inhibition of miR-122 (unknown origin) by luciferase signalling.
The nature of data set [21]: Inhibition of pri-miR-122 (unknown origin) at 10 uM relative to control.
The test system of data set [22] is MCF7. The experiment in a line: Inhibition of miR-27a (unknown origin) transfected in human MCF7 cells assessed as fold increase at 20 uM by luciferase assay. The format is cell-based.
Data set [23] can be described thus: Induction of human MDA-MB-231 cells assessed as induces increasing in apoptotic rate by western blot analysis relative to control. The format is functional. (In general: A western blot detects proteins with antibodies after separation by electrophoresis.)
Data set [24] concerns pre-miR-544 (human). The experiment in a line: Effect on pre-miR-544 in human MCF-10A cells assessed as fold increasing level.
In data set [25] the test system is miR-544 (human). The experiment in a line: Effect on miR-544 in human MCF-10A cells assessed as reduction in expression level relative to control. Details: scale not given: the % may be the effect or the level left.
Data set [26] is described as follows: Activation of miRNA (unknown origin).
For data set [27], the system named is HCT-116. Nature of the data set: Antiproliferative activity against human HCT-116 cells assessed as reduction in cell viability measured after 72 hrs by MTT assay. The data set is classed as functional, cell-based. The settings on record: HCT-116, 72 h.
Data set [28] can be described thus: Effect on miR-96 in human MCF7 cells assessed as decrease in expression level at 40 uM relative to control. The data set is classed as functional. Details: scale not given: the % may be the effect or the level left.
The nature of data set [29]: Activation of miR-122 (unknown origin) by luciferase assay.
Data set [30] has as its system HepG2. Nature of the data set: Cytotoxicity against human HepG2 cells assessed as reduction in cell viability measured after 24 hrs at 10 uM relative to control. The data set is classed as toxicity, cell-based. Conditions: hepg2, 24 h.

Usually EC50 stands for the concentration at which the effect is half-maximal. A word on the inhibition: it is how much of the control response was suppressed. Take `C#CCNC(=O)c1ccc(/N=N/c2ccc(N)cc2)cc1`: the concentration for a half-maximal effect (EC50) in [1] worked out at 2000 nM. For the same molecule, the inhibition in data set [2] is 80%.

As a reminder, the IC50 is the concentration at which inhibition is half-maximal. The molecule `CN1CCN(c2ccc3nc(-c4ccc5[nH]c(-c6cccc(OCCCC(=O)NCCN=[N+]=[N-])c6)nc5c4)[nH]c3c2)CC1` displayed a half-maximal inhibitory concentration (IC50) in data set [3] of 200 nM. For the same molecule, the “fold change (FC)” value in data set [4] turned out to be 2.6; in data set [5], 3; in data set [7], 5. Also, the results for the Activity in data set [6] and in data set [8] were 90% and 75%, respectively.

`O=C(Nc1ccc2ccccc2c1)c1ccc(Cl)cc1Cl` returned a concentration for half-maximal inhibition (IC50) in data set [9] of 3000 nM. This molecule showed an inhibition in [10] of 50%. This molecule came in with an Activity in data set [11] of 50%. Also, in [12], the fold change (FC) came out at 7.7.

With `CN[C@@H]1[C@H](O[C@H]2[C@H](O[C@H]3[C@H](O)[C@@H](O)[C@H](N=C(N)N)[C@@H](O)[C@@H]3N=C(N)N)O[C@@H](C)[C@]2(O)C=O)O[C@@H](CO)[C@H](O)[C@H]1O` [STREPTOMYCIN], the fold change (FC) in [13] turned out to be 1.4; in [14], 2; in [15] it was 2.

Consider `COC12C(=O)c3ccccc3C(=O)C1C(c1ccccc1)=C2c1ccc(OC(=O)OC(C)(C)C)c2ncccc12` (configuration not stated), for which the IC50 in data set [16] was found to be 2500 nM; in data set [17], 5000 nM.

In the case of `O=C(O)C1=CC(=C(c2ccc(O)c(C(=O)O)c2)c2ccc(O)c(C(=O)O)c2)C=CC1=O` [AURINTRICARBOXYLIC ACID], the IC50 in [18] and in data set [19] was 470 nM in each case.

In data set [20], `O=S(=O)(c1ccc2c(c1)CCCN2)N1CCC[C@H]2CCCC[C@@H]21` had a half-maximal inhibitory concentration (IC50) of 600 nM. For the same molecule, the inhibition in data set [21] turned out to be 90%. The same molecule displayed an Activity in data set [11] of 50%. The fold change (FC) in [12] worked out at 12.5.

For the molecule `NC[C@@H]1O[C@H](O[C@H]2[C@@H](O)[C@H](O[C@@H]3[C@@H](O)[C@H](N)C[C@H](N)[C@H]3O[C@H]3O[C@H](CN)[C@@H](O)[C@H](O)[C@H]3N)O[C@@H]2CO)[C@H](N)[C@@H](O)[C@@H]1O`, in [22], the fold change (FC) was determined as 1.2.

For the molecule `N#Cc1c(N2CCCC2)nc(N)c2c(N)nc(N3CCCC3)cc12`, the Activity in data set [23] was 60%; in data set [25], 90%. Also, in data set [24], the “fold change (FC)” value stood at 2.

With `CCn1cc(C(=O)O)c(=O)c2cc(F)c(N3CCNCC3)nc21` [ENOXACIN], the values for the EC50 in [26] and in data set [27] were 30000 nM and 124000 nM, respectively.

Consider `CN1CCN(c2ccc3nc(-c4cc(C(C)(C)C)c(OCCCC(=O)NCCCN=[N+]=[N-])c(C(C)(C)C)c4)[nH]c3c2)CC1`, for which the Activity in [28] is recorded as 90%.

As to `CN(C)CCN1C(=O)c2cccc3cccc(c23)C1=O`, the half-maximal effective concentration (EC50) in [29] was found to be 3000 nM. Further, in data set [30], the Activity turned out to be 80%.
